Measured values from patent publication US12102660B2, “Association of N-acetylcysteine and colistin for use in bacterial infections” (Zambon S.P.A., priority 2017, dated 2024).
Read-outs that look alike come from different tables or passages of the source.

Assays:
[1] = system: colistin resistant A. baumannii clinical isolates; assay: MIC determination and classic checkerboard assays (colistin, NAC); type: cell-based, Acinetobacter baumannii; conditions: for MIC: Acinetobacter baumannii
Protocol: (§1) In vitro antimicrobial synergism between NAC and colistin was determined following EUCAST guidelines. In particular, the total fractional inhibitory concentration (ΣFIC) was calculated as follows: ΣFIC equals FIC of agent A plus FIC of agent B, where the FIC of agent A or B is the minimum inhibitory concentration (MIC) of agent A or B in the presence of the other divided by the MIC of agent A or B alone. Synergism was defined as a ΣFIC value of <0.5.
Classic checkerboard assays were used to investigate potential synergism between colistin (range 0.25-256 μg/ml) and NAC (range 0.5-32 mg/ml). Fraction inhibitory concentration indices (FICIs) were calculated, and synergism was defined as FICI values <0.5. Synergy between colistin and NAC was also confirmed by time-kill assays performed with one isolate, using two different concentrations of colistin (2 and 8 μg/ml, representing concentrations achievable in serum and epithelial lining fluid—ELF, respectively) and NAC (1.6 and 8 mg/ml, likely achievable in ELF by topical administration).

[2] = system: S. maltophilia clinical isolates; assay: as above; type: cell-based, Stenotrophomonas maltophilia; conditions: for MIC: Stenotrophomonas maltophilia
Protocol: as §1
Twenty S. maltophilia clinical isolates were tested, including also four isolates from patients affected by cystic fibrosis (CF). […] Synergism between colistin (range 0.25-256 μg/ml) and NAC (range 0.5-32 mg/ml) was investigated by classic checkerboard assays. Fraction inhibitory concentration indices (FICIs) were calculated, and synergism was defined as FICI values <0.5. Time-kill assays were performed with two clinical isolates (including one strain resistant to trimethoprim-sulphamethoxazole, and one from CF). For this purpose, two different concentrations of colistin (2 and 8 μg/ml, representing concentrations achievable in serum and epithelial lining fluid—ELF, respectively) and NAC (1.6 and 8 mg/ml, likely achievable in ELF by topical administration) were tested alone and in combination.

[3] = seven colistin resistant A. baumannii clinical isolates
[4] = twenty S. maltophilia clinical isolates

Compound | MIC ([1]; isolate N50, read-out: NAC MIC) | MIC ([1]; the remaining A. baumannii isolates, read-out: MIC of NAC) | MIC ([1]; two of seven A. baumannii isolates, read-out: MIC of NAC) | MIC ([2]; nine S. maltophilia isolates) | MIC ([2]; one S. maltophilia isolate) | MIC ([2]; the remaining S. maltophilia isolates) | Colistin MIC ([1]; isolate N50) | MIC50 [1, 3] | MIC90 [1, 3] | colistin MIC range [1, 3] | colistin 8 μg/ml as multiple of MIC ([1]; strain Z165) | colistin 8 μg/ml as multiple of MIC ([1]; strain Z167) | MIC50 [2, 4] | MIC90 [2, 4]
CC(=O)N[C@@H](CS)C(=O)O [NAC, N-acetylcysteine] | > 32 mg/mL | > 32 mg/mL | 32 mg/mL | 16 mg/mL | > 32 mg/mL | 32 mg/mL |  |  |  |  |  |  |  | 
colistin sulfate |  |  |  |  |  |  | 0.016 mg/mL | 0.064 mg/mL | 0.128 mg/mL | 0.016 to 0.256 mg/mL | 0.25 ×MIC | 0.06 ×MIC | 0.016 mg/mL | 0.064 mg/mL
